Experimental data taken from PMC7190985 (Frontiers in Microbiology, 2020).
Entries after “also recorded” stand apart in the source; their conditions may differ.

Experiments:
VACV-WR-GFP virus = assay: microbe, parasite or virus in culture; format: cell-based; settings: Orthopoxvirus vaccinia, HeLa, 24 h; for IC50: read-out: IC50 (50% inhibition of viral spread); for IC90: read-out: IC90 (90% inhibition of viral spread)
in vitro = settings: human
VACV WR-Luc virus = format: cell-based
VACV WR = format: cell-based, vaccinia virus
VACV IHDJ virus = format: cell-based, vaccinia virus
VACV WR A4-YFP = format: cell-based, vaccinia virus
luciferase = luciferase (Photinus pyralis, UniProt P08659); format: biochemical
Sequence of luciferase (P08659 whole entry): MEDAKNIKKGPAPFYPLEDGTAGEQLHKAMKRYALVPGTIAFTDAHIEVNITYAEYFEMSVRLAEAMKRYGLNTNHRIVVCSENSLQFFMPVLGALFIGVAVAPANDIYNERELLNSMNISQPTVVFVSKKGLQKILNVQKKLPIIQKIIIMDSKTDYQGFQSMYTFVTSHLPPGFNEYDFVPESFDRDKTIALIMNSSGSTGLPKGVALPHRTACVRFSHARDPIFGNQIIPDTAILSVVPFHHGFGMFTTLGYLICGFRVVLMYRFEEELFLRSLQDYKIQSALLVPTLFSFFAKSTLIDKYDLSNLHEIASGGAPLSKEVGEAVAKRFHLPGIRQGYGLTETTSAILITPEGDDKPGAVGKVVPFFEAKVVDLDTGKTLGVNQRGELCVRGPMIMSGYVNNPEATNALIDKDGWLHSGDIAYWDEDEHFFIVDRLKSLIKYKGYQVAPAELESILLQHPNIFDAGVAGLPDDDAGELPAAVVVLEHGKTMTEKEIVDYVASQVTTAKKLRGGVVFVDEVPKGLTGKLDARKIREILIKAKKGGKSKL

Compound	IC50 (VACV-WR-GFP virus) [µM]	IC90 (VACV-WR-GFP virus) [µM]	CC50 (in vitro) [µM]	luciferase activity (viral entry) (VACV WR-Luc virus)	viral entry (luciferase RLU) (VACV WR-Luc virus)	viral plaque size, wild-type virus (VACV WR)	MV yield / MV formation (VACV IHDJ virus)	virus-loaded actin tails per cell (VACV WR A4-YFP)	luciferase enzyme activity (RLU) (luciferase)
Cc1ccc(/C=N/c2ccccc2C(=O)Nc2ccccc2)s1 [Retro 2]	2.2	5.5	> 400	–	–	–	–	–	–
O=C1CN(C(=O)c2nccs2)C(c2cccc(Cl)c2)c2cc(Br)ccc2N1 (centres unmarked) [PA104]	0.5	1.3	> 400	observable reduction in luciferase activity	a decrease in viral entry was observed	maximal inhibition of plaque size	small reduction in MV yield	significant decrease in virus-loaded tails	does not impact luciferase enzyme activity
CCC(=O)N1CC(=O)Nc2ccc(Br)cc2C1c1ccccc1 (centres unmarked) [Retro 1]	3	7.2	> 400	–	–	–	–	–	–
O=C1CN(C(=O)c2nccs2)C(c2cc(Cl)cc(Cl)c2)c2cc(Cl)ccc2N1 (centres unmarked) [PA24]	1	1.8	> 400	–	did not markedly decrease viral entry; also recorded: reduced viral entry	–	–	significant decrease in virus-loaded tails	–
O=C(NN1C(=O)[C@@H]2[C@@H]3C=C[C@@H]([C@H]4C[C@@H]34)[C@@H]2C1=O)c1ccc(C(F)(F)F)cc1 [ST-246]	0.04	0.1	> 400	–	–	–	–	–	–
